ChEMBL document CHEMBL1201862, “PubChem BioAssay data set” (2004)
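A five-concentration, 48-hour dose response in 96-well plates underlies each endpoint, interpolated linearly between surrounding concentrations. At the GI50, growth is halved.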 Calls of active or inactive are those of the source. No stated cut-off is given here; in the data, active = GI50 up to about 1.1 µM and inactive = higher.

Key:
Experiment in all cases: NCI tumour cell line growth inhibition, 48 h
NCI-H226 = test system: NCI-H226
SF-268 = test system: SF-268
MOLT-4 = test system: MOLT-4
MCF7 = test system: MCF7
SK-MEL-2 = test system: SK-MEL-2
OVCAR-4 = test system: OVCAR-4
SF-539 = test system: SF-539
COLO 205 = test system: COLO 205
UO-31 = test system: UO-31
NCI-H23 = test system: NCI-H23
MDA-MB-435 = test system: MDA-MB-435
SNB-19 = test system: SNB-19
U-251 = test system: U-251
OVCAR-8 = test system: OVCAR-8
NCI-H460 = test system: NCI-H460
SK-OV-3 = test system: SK-OV-3
T47D = test system: T47D
CCRF-CEM = test system: CCRF-CEM
HL-60 = test system: HL-60
MDA-MB-231 = test system: MDA-MB-231
HCT-15 = test system: HCT-15
UACC-257 = test system: UACC-257
DU-145 = test system: DU-145
PC-3 = test system: PC-3
SK-MEL-5 = test system: SK-MEL-5
HT-29 = test system: HT-29
ACHN = test system: ACHN
KM12 = test system: KM12
UACC-62 = test system: UACC-62
SN12C = test system: SN12C
MDA-N = test system: MDA-N
IGROV-1 = test system: IGROV-1
SF-295 = test system: SF-295
HCT-116 = test system: HCT-116
SR = test system: SR
786-0 = test system: 786-0
A549 = test system: A549
RPMI-8226 = test system: RPMI-8226
LOX IMVI = test system: LOX IMVI
NCI/ADR-RES = test system: NCI/ADR-RES
HCC 2998 = test system: HCC 2998
Malme-3M = test system: Malme-3M
EKVX = test system: EKVX
SW-620 = test system: SW-620
TK-10 = test system: TK-10
K562 = test system: K562
Hs-578T = test system: Hs-578T
SNB-75 = test system: SNB-75
M14 = test system: M14
CAKI-1 = test system: CAKI-1
HOP-62 = test system: HOP-62
A498 = test system: A498
SK-MEL-28 = test system: SK-MEL-28
NCI-H522 = test system: NCI-H522
HOP-92 = test system: HOP-92
OVCAR-3 = test system: OVCAR-3
OVCAR-5 = test system: OVCAR-5
RXF 393 = test system: RXF 393

Q: `O=C(/C=C/c1ccsc1)c1ccc(Cl)s1` was tested. Which GI50 (NCI-H226) did it give?
A: Its GI50 is 53.3 µM (inactive).

Q: And the GI50 (SF-268)?
A: Its GI50 is 67.5 µM (inactive).

Q: And the GI50 (MOLT-4)?
A: The GI50 was 20.6 µM (inactive).

Q: And the GI50 (MCF7)?
A: The GI50 was 22.5 µM (inactive).

Q: And the GI50 (SK-MEL-2)?
A: Its GI50 is > 100 µM (inactive).

Q: What about the GI50 (OVCAR-4) of the same molecule?
A: The GI50 was > 100 µM (inactive).

Q: And the GI50 (SF-539)?
A: Its GI50 is > 100 µM (inactive).

Q: What about the GI50 (COLO 205) of the same molecule?
A: Its GI50 is > 100 µM (inactive).

Q: What about the GI50 (UO-31) of the same molecule?
A: Its GI50 is 78.9 µM (inactive).

Q: And the GI50 (NCI-H23)?
A: Its GI50 is 82.8 µM (inactive).

Q: And the GI50 (MDA-MB-435)?
A: The GI50 was 30.6 µM (inactive).

Q: What about the GI50 (SNB-19) of the same molecule?
A: The GI50 was > 100 µM (inactive).

Q: And the GI50 (U-251)?
A: The GI50 was > 100 µM (inactive).

Q: And the GI50 (OVCAR-8)?
A: Its GI50 is > 100 µM (inactive).

Q: What about the GI50 (NCI-H460) of the same molecule?
A: Its GI50 is > 100 µM (inactive).

Q: And the GI50 (SK-OV-3)?
A: The GI50 was > 100 µM (inactive).

Q: And the GI50 (T47D)?
A: Its GI50 is > 100 µM (inactive).

Q: What about the GI50 (CCRF-CEM) of the same molecule?
A: Its GI50 is 28.4 µM (inactive).

Q: And the GI50 (HL-60)?
A: Its GI50 is 24.8 µM (inactive).

Q: And the GI50 (MDA-MB-231)?
A: The GI50 was > 100 µM (inactive).

Q: What about the GI50 (HCT-15) of the same molecule?
A: The GI50 was 43.5 µM.

Q: What about the GI50 (UACC-257) of the same molecule?
A: Its GI50 is > 100 µM (inactive).

Q: And the GI50 (DU-145)?
A: The GI50 was > 100 µM (inactive).

Q: And the GI50 (PC-3)?
A: Its GI50 is > 100 µM (inactive).

Q: What about the GI50 (SK-MEL-5) of the same molecule?
A: The GI50 was > 100 µM (inactive).

Q: What about the GI50 (HT-29) of the same molecule?
A: Its GI50 is 34 µM (inactive).

Q: And the GI50 (ACHN)?
A: Its GI50 is > 100 µM (inactive).

Q: What about the GI50 (KM12) of the same molecule?
A: The GI50 was 19.5 µM (inactive).

Q: And the GI50 (UACC-62)?
A: The GI50 was > 100 µM (inactive).

Q: And the GI50 (SN12C)?
A: The GI50 was 75.3 µM (inactive).

Q: What about the GI50 (MDA-N) of the same molecule?
A: Its GI50 is 56.6 µM (inactive).

Q: What about the GI50 (IGROV-1) of the same molecule?
A: The GI50 was > 100 µM (inactive).

Q: What about the GI50 (SF-295) of the same molecule?
A: Its GI50 is 59.4 µM (inactive).

Q: And the GI50 (HCT-116)?
A: The GI50 was 25.4 µM (inactive).

Q: And the GI50 (SR)?
A: Its GI50 is 24 µM (inactive).

Q: What about the GI50 (786-0) of the same molecule?
A: Its GI50 is > 10 µM (inactive).

Q: What about the GI50 (A549) of the same molecule?
A: The GI50 was > 100 µM (inactive).

Q: What about the GI50 (RPMI-8226) of the same molecule?
A: The GI50 was 17.1 µM (inactive).

Q: What about the GI50 (LOX IMVI) of the same molecule?
A: The GI50 was 19.4 µM (inactive).

Q: What about the GI50 (NCI/ADR-RES) of the same molecule?
A: Its GI50 is > 100 µM (inactive).

Q: And the GI50 (HCC 2998)?
A: The GI50 was 31.7 µM (inactive).

Q: What about the GI50 (Malme-3M) of the same molecule?
A: The GI50 was > 100 µM (inactive).

Q: And the GI50 (EKVX)?
A: Its GI50 is > 100 µM (inactive).

Q: And the GI50 (SW-620)?
A: Its GI50 is 24.7 µM (inactive).

Q: What about the GI50 (TK-10) of the same molecule?
A: Its GI50 is > 100 µM (inactive).

Q: What about the GI50 (K562) of the same molecule?
A: The GI50 was > 10 µM (inactive).

Q: And the GI50 (Hs-578T)?
A: The GI50 was > 100 µM (inactive).

Q: What about the GI50 (SNB-75) of the same molecule?
A: The GI50 was > 100 µM (inactive).

Q: What about the GI50 (M14) of the same molecule?
A: The GI50 was > 100 µM (inactive).

Q: What about the GI50 (CAKI-1) of the same molecule?
A: The GI50 was > 100 µM (inactive).

Q: And the GI50 (HOP-62)?
A: The GI50 was > 100 µM (inactive).

Q: And the GI50 (A498)?
A: Its GI50 is 34.5 µM (inactive).

Q: What about the GI50 (SK-MEL-28) of the same molecule?
A: The GI50 was 55.1 µM (inactive).

Q: How did the GI50 (NCI-H226) turn out when `O=C(CC(C(=O)c1cccs1)c1ccccc1)c1ccccc1O` (stereo unspecified) was run?
A: Its GI50 is > 57.7 µM (inactive).

Q: And the GI50 (SF-268)?
A: Its GI50 is 8.28 µM (inactive).

Q: And the GI50 (MOLT-4)?
A: The GI50 was 7.08 µM (inactive).

Q: And the GI50 (MCF7)?
A: The GI50 was 9.86 µM (inactive).

Q: What about the GI50 (SK-MEL-2) of the same molecule?
A: Its GI50 is > 21.8 µM (inactive).

Q: What about the GI50 (OVCAR-4) of the same molecule?
A: The GI50 was 16.4 µM (inactive).

Q: What about the GI50 (SF-539) of the same molecule?
A: The GI50 was 34.1 µM (inactive).

Q: What about the GI50 (COLO 205) of the same molecule?
A: The GI50 was > 50.7 µM (inactive).

Q: What about the GI50 (UO-31) of the same molecule?
A: The GI50 was 18.5 µM (inactive).

Q: And the GI50 (NCI-H23)?
A: Its GI50 is > 42.6 µM (inactive).

Q: And the GI50 (MDA-MB-435)?
A: The GI50 was 3.1 µM (inactive).

Q: What about the GI50 (SNB-19) of the same molecule?
A: Its GI50 is 23.9 µM (inactive).

Q: What about the GI50 (U-251) of the same molecule?
A: The GI50 was 9.93 µM (inactive).

Q: And the GI50 (OVCAR-8)?
A: The GI50 was 9.62 µM (inactive).

Q: What about the GI50 (NCI-H460) of the same molecule?
A: The GI50 was 48.1 µM (inactive).

Q: What about the GI50 (SK-OV-3) of the same molecule?
A: The GI50 was 8.57 µM (inactive).

Q: What about the GI50 (NCI-H522) of the same molecule?
A: Its GI50 is 3.21 µM (inactive).

Q: What about the GI50 (T47D) of the same molecule?
A: The GI50 was 9.66 µM (inactive).

Q: And the GI50 (CCRF-CEM)?
A: The GI50 was 2.55 µM (inactive).

Q: What about the GI50 (HOP-92) of the same molecule?
A: Its GI50 is 7.6 µM (inactive).

Q: What about the GI50 (HCT-15) of the same molecule?
A: The GI50 was 8 µM.

Q: What about the GI50 (UACC-257) of the same molecule?
A: Its GI50 is > 30.7 µM (inactive).

Q: And the GI50 (DU-145)?
A: Its GI50 is 36.4 µM (inactive).

Q: And the GI50 (PC-3)?
A: The GI50 was 14 µM (inactive).

Q: And the GI50 (SK-MEL-5)?
A: Its GI50 is 9.48 µM (inactive).

Q: What about the GI50 (OVCAR-3) of the same molecule?
A: Its GI50 is 83 µM (inactive).

Q: What about the GI50 (HT-29) of the same molecule?
A: Its GI50 is 11.9 µM (inactive).

Q: What about the GI50 (OVCAR-5) of the same molecule?
A: Its GI50 is > 100 µM (inactive).

Q: What about the GI50 (RXF 393) of the same molecule?
A: The GI50 was 5.19 µM (inactive).

Q: And the GI50 (ACHN)?
A: Its GI50 is 11.3 µM (inactive).

Q: What about the GI50 (KM12) of the same molecule?
A: The GI50 was 20.9 µM (inactive).

Q: What about the GI50 (UACC-62) of the same molecule?
A: Its GI50 is 14.7 µM (inactive).

Q: And the GI50 (SN12C)?
A: The GI50 was > 20.7 µM (inactive).

Q: What about the GI50 (MDA-N) of the same molecule?
A: The GI50 was 4.93 µM (inactive).

Q: And the GI50 (IGROV-1)?
A: Its GI50 is 4.98 µM (inactive).

Q: And the GI50 (SF-295)?
A: Its GI50 is 8.67 µM (inactive).

Q: And the GI50 (HCT-116)?
A: Its GI50 is 4.74 µM (inactive).

Q: And the GI50 (SR)?
A: The GI50 was 9.27 µM (inactive).

Q: What about the GI50 (786-0) of the same molecule?
A: Its GI50 is 9.91 µM (inactive).

Q: And the GI50 (A549)?
A: Its GI50 is 13.1 µM (inactive).

Q: What about the GI50 (RPMI-8226) of the same molecule?
A: The GI50 was 12.8 µM (inactive).

Q: What about the GI50 (LOX IMVI) of the same molecule?
A: Its GI50 is 12.4 µM (inactive).

Q: What about the GI50 (NCI/ADR-RES) of the same molecule?
A: The GI50 was 6.01 µM (inactive).

Q: What about the GI50 (EKVX) of the same molecule?
A: The GI50 was 12.7 µM (inactive).

Q: What about the GI50 (SW-620) of the same molecule?
A: Its GI50 is 46 µM (inactive).

Q: What about the GI50 (TK-10) of the same molecule?
A: The GI50 was > 41.1 µM (inactive).

Q: What about the GI50 (K562) of the same molecule?
A: Its GI50 is 3.1 µM (inactive).

Q: And the GI50 (Hs-578T)?
A: Its GI50 is 5.81 µM (inactive).

Q: And the GI50 (SNB-75)?
A: The GI50 was > 20.6 µM (inactive).

Q: What about the GI50 (M14) of the same molecule?
A: Its GI50 is 4 µM (inactive).

Q: And the GI50 (CAKI-1)?
A: The GI50 was 8.95 µM (inactive).

Q: What about the GI50 (HOP-62) of the same molecule?
A: Its GI50 is 18.2 µM (inactive).

Q: What about the GI50 (SK-MEL-28) of the same molecule?
A: Its GI50 is 20 µM (inactive).
